Read-outs that look alike come from different tables or passages of the source.
Molecular target: plasmepsin II (Plasmodium falciparum, UniProt P46925)
Test: biochemical
[1] = Additional Examples table, FRET, pH 5, 37° C., 40 min, substrate 1 μM, read-out: IC50 (nM) on plasmepsin II
[2] = […], FRET, pH 5, 37° C., 40 min, substrate 1 μM, read-out: IC50 (nM) on plasmepsin II

Sequence of plasmepsin II (P46925 125-453): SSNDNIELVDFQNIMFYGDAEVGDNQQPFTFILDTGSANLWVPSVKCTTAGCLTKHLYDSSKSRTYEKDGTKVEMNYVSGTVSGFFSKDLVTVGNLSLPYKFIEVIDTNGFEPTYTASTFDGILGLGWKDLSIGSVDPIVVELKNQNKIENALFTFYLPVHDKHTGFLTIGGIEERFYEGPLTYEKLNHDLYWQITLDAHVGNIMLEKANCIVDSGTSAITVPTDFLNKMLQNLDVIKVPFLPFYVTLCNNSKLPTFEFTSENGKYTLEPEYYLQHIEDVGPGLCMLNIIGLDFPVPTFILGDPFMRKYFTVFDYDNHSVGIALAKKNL

Row | Structure (SMILES) | IC50 [1] | other results
1 | CCCCCc1ccc(C(=O)N(Cc2ccc(-c3ccc(C#N)cc3)cc2)C2CCN(Cc3ccccc3)CC2)cc1 [Example 59, N-(1-Benzyl-piperidin-4-yl)-N-(4′-cyano-biphenyl-4-ylmethyl)-4-pentyl-benzamide] | 81 nM | –
2 | CCCCCc1ccc(CN(Cc2ccc(OCc3ccccc3)cc2)C2CCN(Cc3ccccc3)CC2)cc1 [Example 103, (4-Benzyloxybenzyl)-(1-benzyl-piperidin-4-yl)-(4-pentylbenzyl)amine] | 431 nM | –
3 | CCCCCc1ccc(CN(Cc2ccc(-c3ccc4c(c3)OCO4)cc2)C2CCN(Cc3ccccc3)CC2)cc1 [Example 91, (4-Benzo[1,3]dioxol-5-yl-benzyl)-(1-benzylpiperidin-4-yl)-(4-pentyl-benzyl)amine] | 275 nM | –
4 | CCCCCc1ccc(C(=O)N(Cc2ccc(-c3ccccc3F)cc2)C2CCN(Cc3ccc(O)cc3)CC2)cc1 [Example 76, N-(2′-Fluorobiphenyl-4-ylmethyl)-N-[1-(4-hydroxybenzyl)piperidin-4-yl]-4-pentylbenzamide] | 152 nM | –
5 | CCCCCc1ccc(C(=O)N(Cc2ccc(-c3cncnc3)cc2)C2CCN(Cc3ccccc3)CC2)cc1 [Example 87, N-(1-Benzylpiperidin-4-yl)-4-pentyl-N-(4-pyrimidin-5-ylbenzyl)benzamide] | 250 nM | –
6 | CCCCCc1ccc(C(=O)N(Cc2ccc(-c3ccccn3)cc2)C2CCN(CC3=CCCCC3)CC2)cc1 [Example 70, N-(1-Cyclohex-1-enylmethylpiperidin-4-yl)-4-pentyl-N-(4-pyridin-2-ylbenzyl)benzamide] | 125 nM | –
7 | CCCCCc1ccc(C(=O)N(Cc2ccc(-c3ccccc3Cl)cc2)C2CCN(Cc3ccccc3)CC2)cc1 [Example 68, N-(1-Benzylpiperidin-4-yl)-N-(2′-chlorobiphenyl-4-ylmethyl)-4-pentylbenzamide] | 120 nM | –
8 | CCCCCc1ccc(C(=O)N(Cc2ccc(CCCC)cc2)C2CCN(Cc3ccccc3)CC2)cc1 [Example 24] | – | IC50 [2]: 427 nM
9 | CCCCCc1ccc(C(=O)N(Cc2ccc(-c3ccc(OC)c(OC)c3)cc2)C2CCN(Cc3cccnc3)CC2)cc1 [Example 46, N-(3′,4′-Dimethoxybiphenyl-4-ylmethyl)-4-pentyl-N-(1-pyridin-3-ylmethylpiperidin-4-yl)benzamide] | 45 nM | –
10 | CCCCCc1ccc(C(=O)N(Cc2ccc(-c3cccnc3)cc2)C2CCN(CC3CC3)CC2)cc1 [Example 73, N-(1-Cyclopropylmethylpiperidin-4-yl)-4-pentyl-N-(4-pyridin-3-yl-benzyl)benzamide] | 128 nM | –
11 | CCCCCc1ccc(C(=O)N(Cc2ccc(-c3ccccc3F)cc2)C2CCN(Cc3ccccc3)CC2)cc1 [Example 53, N-(1-Benzylpiperidin-4-yl)-N-(2′-fluorobiphenyl-4-ylmethyl)-4-pentylbenzamide] | 61 nM | –
12 | CCCCC[C@H]1CC[C@H](C(=O)N(Cc2ccc(-c3ccccc3)cc2)C2CCN(Cc3ccccc3)CC2)CC1 [Example 100, trans-4-Pentylcyclohexane carboxylic acid(1-benzylpiperidin-4-yl)-biphenyl-4-ylmethyl amide] | 374 nM | –
13 | CCCCCc1ccc(C(=O)N(Cc2ccc(-c3cccnc3)cc2)C2CCN(CCC(C)C)CC2)cc1 [Example 39, N-[1-(3-Methylbutyl)piperidin-4-yl]-4-pentyl-N-(4-pyridin-3-yl-benzyl)benzamide] | 20 nM | –
14 | CCCCOc1ccc(C(=O)N(Cc2ccc(OCc3ccccc3)cc2)C2CCN(Cc3ccccc3)CC2)cc1 [Example 3] | – | IC50 [2]: 1700 nM
15 | CCCCCc1ccc(C(=O)N(Cc2ccc(-c3ccccc3)cc2)C2CCN(Cc3ccc(F)cc3)CC2)cc1 [Example 101, N-Biphenyl-4-ylmethyl-N-[1-(4-fluorobenzyl)piperidin-4-yl]-4-pentylbenzamide] | 385 nM | –
16 | CCCCCC(=Cc1ccccc1)CN(C(=O)c1ccc(CCCCC)cc1)C1CCN(Cc2ccccc2)CC1 [Example 117, N-(1-Benzylpiperidin-4-yl)-4-pentyl-N-(2-pentyl-3-phenylallyl)benzamide] | 933 nM | –

Row | Structure (SMILES) | IC50 [1] | other results
17 | CCCCCCc1ccc(C(=O)N(Cc2ccc(-c3ccccc3)cc2)C2CCN(Cc3ccccc3)CC2)cc1 [Example 97, N-(1-Benzylpiperidin-4-yl)-N-biphenyl-4-ylmethyl-4-hexyl-benzamide] | 322 nM | –
18 | CCCCCc1ccc(CN(Cc2ccc(-c3ccc(OC)c(OC)c3)cc2)C2CCN(Cc3ccccc3)CC2)cc1 [Example 88, (1-Benzylpiperidin-4-yl)-(3′,4′-dimethoxybiphenyl-4-ylmethyl)-(4-pentyl-benzyl)amine] | 255 nM | –
19 | CCCCCc1ccc(C(=O)N(Cc2ccc(-c3ccc(C#N)cc3)cc2)C2CCN(CC3=CCCCC3)CC2)cc1 [Example 40, N-(4′-Cyanobiphenyl-4-ylmethyl)-N-(1-cyclohex-1-enylmethyl-piperidin-4-yl)-4-pentylbenzamide] | 25 nM | –
20 | CCCCCc1ccc(C(=O)N(Cc2ccc(-c3ccccc3)cc2)[C@H]2CCN(Cc3ccccc3)C2)cc1 [Example 36] | – | IC50 [2]: 164 nM
21 | CCCCCc1ccc(CN(C(=O)c2ccc(CCCCC)cc2)C2CCN(Cc3ccccc3)CC2)cc1 [Example 26] | – | IC50 [2]: 497 nM
22 | CCCCCCCCCCCC(=O)N(Cc1ccc(OCc2ccccc2)cc1)C1CCN(Cc2ccccc2)CC1 [Example 6] | – | IC50 [2]: 1800 nM
23 | CCCCCc1ccc(C(=O)N(C2CCN(Cc3ccccc3)CC2)[C@H](CO)Cc2ccc(OCc3ccccc3)cc2)cc1 [Example 111, N-[(1S)-2-(4-Benzyloxyphenyl)-1-hydroxymethylethyl]-N-(1-benzyl-piperidin-4-yl)-4-pentylbenzamide] | 749 nM | –
24 | CCCCCc1ccc(C(=O)N(Cc2ccc(-c3ccc4c(c3)OCO4)cc2)C2CCN(Cc3ccoc3)CC2)cc1 [Example 49, N-(4-Benzo[1,3]dioxol-5-yl-benzyl)-N-(1-furan-3-ylmethylpiperidin-4-yl)-4-pentylbenzamide] | 52 nM | –
25 | CCCCCc1ccc(C(=O)N(Cc2ccc(-c3ccccc3F)cc2)C2CCN(CC3=CCCCC3)CC2)cc1 [Example 69, N-(1-Cyclohex-1-enylmethylpiperidin-4-yl)-N-(2′-fluorobiphenyl-4-ylmethyl)-4-pentylbenzamide] | 123 nM | –
26 | CCCCCc1ccc(CN(Cc2ccc(-c3ccccc3)cc2)C2CCN(Cc3ccccc3)CC2)cc1 [Example 31] | – | IC50 [2]: 210 nM
27 | CCCCCC12CCC(C(=O)N(Cc3ccc(-c4ccccc4)cc3)C3CCN(Cc4ccccc4)CC3)(CC1)CC2 [Example 118, 4-Pentylbicyclo[2.2.2]octane-1-carboxylic acid(1-benzylpiperidin-4-yl)-biphenyl-4-ylmethylamide] | 942 nM | –
28 | CCCCCc1ccc(C(=O)N(CCCc2ccccc2)C2CCN(Cc3ccccc3)CC2)cc1 [Example 2] | – | IC50: 1500 nM
29 | CCCCCc1ccc(C(=O)N(Cc2ccc(-c3ccc(OC)c(OC)c3)cc2)C2CCN(CC3=CCCCC3)CC2)cc1 [Example 38, N-(1-Cyclohex-1-enylmethyl-piperidin-4-yl)-N-(3′,4′-dimethoxybiphenyl-4-ylmethyl)-4-pentylbenzamide] | 19 nM | –
30 | CCCCCc1ccc(C(=O)N(Cc2ccc(-c3cccnc3)cc2)C2CCN(CC3CCCCC3)CC2)cc1 [Example 47, N-(1-Cyclohexylmethyl-piperidin-4-yl)-4-pentyl-N-(4-pyridin-3-yl-benzyl)benzamide] | 46 nM | –
31 | CCCCCc1ccc(C(=O)N(Cc2ccc3ccccc3c2)C2CCN(Cc3ccccc3)CC2)cc1 [Example 86, N-(1-Benzylpiperidin-4-yl)-N-naphthalen-2-ylmethyl-4-pentylbenzamide] | 248 nM | –

— patent US20040102431A1, “Substituted amino-aza-cycloalkanes useful against malaria” (priority 2000, published 2004)
